# Measured values reported in PubChem BioAssay (NCI).
#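 All cell lines were grown in 96-well plates and treated with compound for 48 hours. At the TGI there is no net growth.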
# Key:
# Test in all cases: DTP human tumour cell line panel, 48 h
# DMS 114 small cell lung = system: DMS 114 small cell lung
# HOP-18 NSCLC = system: HOP-18 NSCLC
# RXF-631 renal = system: RXF-631 renal
# KM20L2 colon = system: KM20L2 colon
# LXFL 529 NSCLC = system: LXFL 529 NSCLC
# UO-31 renal = system: UO-31 renal
# XF 498 CNS = system: XF 498 CNS
# A549 NSCLC = system: A549 NSCLC
# DMS 273 small cell lung = system: DMS 273 small cell lung
# M19-MEL melanoma = system: M19-MEL melanoma
# DLD-1 colon = system: DLD-1 colon
# HL-60(TB) leukemia = system: HL-60(TB) leukemia
# SNB-78 CNS = system: SNB-78 CNS
SMILES,TGI (DMS 114 small cell lung),TGI (HOP-18 NSCLC),TGI (RXF-631 renal),TGI (KM20L2 colon),TGI (LXFL 529 NSCLC),TGI (UO-31 renal),TGI (XF 498 CNS),TGI (A549 NSCLC),TGI (DMS 273 small cell lung),TGI (M19-MEL melanoma),TGI (DLD-1 colon),TGI (HL-60(TB) leukemia),TGI (SNB-78 CNS)
CC(C)C1=CC(=O)C(C)(C2=NC(C)(C)CO2)c2ccccc21 (stereo not drawn),> 100 µM,> 100 µM,> 100 µM,> 100 µM,> 100 µM,> 100 µM,> 100 µM,> 100 µM,> 100 µM,> 100 µM,> 100 µM,> 100 µM,–
CCCCC1(OC(=O)CCC(=O)O)CCC2(CCC(C)C(C/C=C(C)/C=C/C(O)C(C)/C=C/C(=O)O)O2)OC1CC/C(C)=C/C(=O)O (stereo not drawn),8.56 µM,29.8 µM,5.7 µM,46.8 µM,3.83 µM,8.14 µM,4.66 µM,36.6 µM,18.2 µM,7.95 µM,13.8 µM,24.5 µM,7.75 µM
N=c1oc2cc(O)c(O)cc2cc1C(N)=O,> 100 µM,–,> 100 µM,> 100 µM,> 100 µM,> 100 µM,> 100 µM,> 100 µM,> 100 µM,> 100 µM,> 100 µM,–,> 100 µM
NC(=S)Nc1nnc(-c2ccc(-c3nnc(NC(N)=S)o3)cc2)o1,> 100 µM,> 100 µM,–,> 100 µM,> 100 µM,> 100 µM,–,> 100 µM,> 100 µM,> 100 µM,> 100 µM,> 100 µM,> 100 µM
O=C(CSc1nnc(-c2ccc(N=Cc3ccc(Cl)cc3)cc2)o1)Nc1ccccc1,> 100 µM,> 100 µM,–,> 100 µM,> 100 µM,> 100 µM,> 100 µM,> 100 µM,70.6 µM,> 100 µM,–,> 100 µM,> 100 µM
C1=Cc2nc1c(-c1ccccc1)c1ccc([n-]1)c(-c1ccccc1)c1nc(c(-c3ccccc3)c3ccc([n-]3)c2-c2ccccc2)C=C1.[Zn+2],> 100 µM,–,> 100 µM,> 100 µM,> 100 µM,> 100 µM,> 100 µM,> 100 µM,–,> 100 µM,> 100 µM,> 100 µM,> 100 µM
CC(C)(C)c1cc(N=NC(=S)NCc2ccccc2)cc(C(C)(C)C)c1O,> 100 µM,–,> 100 µM,> 100 µM,> 100 µM,> 100 µM,> 100 µM,> 100 µM,> 100 µM,> 100 µM,> 100 µM,> 100 µM,–
Cc1nc(Nc2ccccc2)sc1C(=O)NNC(N)=O,> 100 µM,> 100 µM,–,> 100 µM,> 100 µM,> 100 µM,> 100 µM,> 100 µM,> 100 µM,> 100 µM,> 100 µM,> 100 µM,> 100 µM
CN(C)c1cccc(-c2cc(=O)c3cc4c(cc3[nH]2)OCO4)c1,–,–,> 100 µM,0.515 µM,> 48.4 µM,> 100 µM,7.24 µM,–,–,> 100 µM,> 100 µM,2.23 µM,> 100 µM
O=C(/C=C(\O)C(=O)O)/C=C(\O)c1ccccc1Cl,> 100 µM,> 100 µM,–,> 100 µM,> 100 µM,> 100 µM,> 100 µM,> 100 µM,> 100 µM,–,> 100 µM,> 100 µM,–
Cc1c(C(=O)Nc2ccc(Cl)c(C(F)(F)F)c2)oc2cc(O)ccc2/c1=N\NC(N)=S,> 100 µM,> 100 µM,–,> 100 µM,> 100 µM,> 100 µM,> 100 µM,> 100 µM,> 100 µM,> 100 µM,> 100 µM,> 100 µM,> 100 µM
O=C1OC(c2ccccc2)(c2ccccc2)CC1CN1CCOCC1 (stereo not drawn),32.6 µM,27.7 µM,43.8 µM,36.6 µM,26.9 µM,99.4 µM,–,24.5 µM,> 100 µM,31 µM,31.8 µM,28.3 µM,–
BrC12C3C4C5C(C(C43)C13OCCO3)C52 (stereo not drawn),> 100 µM,> 100 µM,> 100 µM,> 100 µM,> 100 µM,> 100 µM,> 100 µM,> 100 µM,> 100 µM,> 100 µM,> 100 µM,> 100 µM,> 100 µM
CCOC(=O)C1=C(C)C2C3C(=O)NC(=O)C3C1(C)C1C(=O)NC(=O)C21 (stereo not drawn),> 100 µM,> 100 µM,–,> 100 µM,> 100 µM,> 100 µM,–,> 100 µM,> 100 µM,> 100 µM,> 100 µM,> 100 µM,> 100 µM
